Experimental data taken from ChEMBL document CHEMBL1201862, “PubChem BioAssay data set” (2004).
Active and inactive are the calls of the source.

Tests used:
[1] = viability loss in Vero cells – cytotoxicity control for Vif-APOBEC3G degradation inhibitor project, dose response (AID 1117358); assay type: functional; details: Vero
[2] = target: T1, Oxysterols receptor LXR-beta (Homo sapiens, UniProt P55055); assay type: functional, cell-based;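 also: Cell-based luminescence dose-response assay of agonist activity at LXR, run as a confirmatory counterscreen to a daf-12 agonist screen; agonist potency from rising luciferase signal of a Gal4-LXR reporter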
T1 sequence (P55055 whole entry): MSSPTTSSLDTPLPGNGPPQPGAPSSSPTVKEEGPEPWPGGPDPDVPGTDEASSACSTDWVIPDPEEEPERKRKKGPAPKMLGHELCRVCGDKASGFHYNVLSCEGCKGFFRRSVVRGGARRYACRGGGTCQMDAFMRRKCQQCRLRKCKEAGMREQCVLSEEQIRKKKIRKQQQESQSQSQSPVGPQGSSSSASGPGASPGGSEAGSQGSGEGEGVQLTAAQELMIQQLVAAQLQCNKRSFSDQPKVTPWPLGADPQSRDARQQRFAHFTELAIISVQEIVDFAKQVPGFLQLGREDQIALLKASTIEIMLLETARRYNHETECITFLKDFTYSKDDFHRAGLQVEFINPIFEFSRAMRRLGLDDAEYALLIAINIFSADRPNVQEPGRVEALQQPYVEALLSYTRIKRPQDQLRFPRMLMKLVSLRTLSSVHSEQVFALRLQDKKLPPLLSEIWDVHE

Cytochrome P450 2D6 = Cytochrome P450 2D6 (Homo sapiens, UniProt P10635);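 also: CYP2D6 member of a cytochrome P450 panel assay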
Cytochrome P450 2D6, sequence (P10635 whole entry): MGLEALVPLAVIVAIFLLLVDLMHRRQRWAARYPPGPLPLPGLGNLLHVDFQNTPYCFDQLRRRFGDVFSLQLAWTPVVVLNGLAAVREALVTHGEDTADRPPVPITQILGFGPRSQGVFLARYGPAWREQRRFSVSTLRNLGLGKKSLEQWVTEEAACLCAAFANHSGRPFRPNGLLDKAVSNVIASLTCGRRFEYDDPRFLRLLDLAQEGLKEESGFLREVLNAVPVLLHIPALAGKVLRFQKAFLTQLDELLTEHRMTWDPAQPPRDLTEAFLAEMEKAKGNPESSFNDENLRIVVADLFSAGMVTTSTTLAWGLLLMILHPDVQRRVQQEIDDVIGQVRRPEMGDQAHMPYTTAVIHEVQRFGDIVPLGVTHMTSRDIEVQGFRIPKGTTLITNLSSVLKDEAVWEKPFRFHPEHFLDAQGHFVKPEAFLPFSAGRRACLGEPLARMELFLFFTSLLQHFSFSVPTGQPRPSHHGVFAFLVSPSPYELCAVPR

[3] = Luminescence-based cell-based high throughput dose response assay to identify activators of the DAF-12 from the parasite S. stercoralis (ssDAF-12).; assay type: functional
cells [4] = assay: cells
[5] = target: T1, Oxysterols receptor LXR-beta; assay: LXR agonists, Gal4 luciferase reporter, dose response, counter-screen for ssDAF-12 agonist project, cell-based, luminescence, HEK293, S. stercoralis campaign (AID 720737); assay type: functional; details: read-out: IC50 (the source's name)
Cytochrome P450 3A4 = Cytochrome P450 3A4 (Homo sapiens, UniProt P08684);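 also: CYP3A4 tested as one member of a cytochrome P450 panel screen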
Cytochrome P450 3A4, sequence (P08684 whole entry): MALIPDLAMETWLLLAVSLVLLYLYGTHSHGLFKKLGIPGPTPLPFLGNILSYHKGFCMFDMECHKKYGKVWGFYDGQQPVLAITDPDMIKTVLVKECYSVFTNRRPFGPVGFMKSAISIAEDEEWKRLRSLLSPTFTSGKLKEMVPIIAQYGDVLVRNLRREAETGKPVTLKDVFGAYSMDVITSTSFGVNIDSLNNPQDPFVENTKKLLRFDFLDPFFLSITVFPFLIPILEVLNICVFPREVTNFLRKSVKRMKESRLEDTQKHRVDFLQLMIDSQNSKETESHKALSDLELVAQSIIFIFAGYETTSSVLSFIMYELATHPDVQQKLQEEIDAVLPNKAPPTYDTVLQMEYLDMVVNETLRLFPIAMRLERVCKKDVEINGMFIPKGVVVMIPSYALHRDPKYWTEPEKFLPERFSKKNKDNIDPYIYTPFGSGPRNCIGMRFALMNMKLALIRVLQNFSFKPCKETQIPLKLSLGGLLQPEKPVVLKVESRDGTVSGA

[6] = viability loss in HepG2 liver cells – cell-based, ATP luminescence, cherry-pick, set 6, cytotoxicity control, dose response (AID 1053125); assay type: functional
cells [7] = details: HEK293
[8] = target: Heat shock protein HSP 90-alpha (Homo sapiens, UniProt P07900); assay type: functional, organism-based
[9] = Luminescence Cell-Based Dose Retest to Confirm Inhibitors of Cancer Stem Cells. [Related pubchem assays (depositor defined):AID2717, AID2721]; assay type: functional; details: Homo sapiens
cells [10] = details: A549
[11] = target: Signal transducer and activator of transcription 1-alpha/beta (Homo sapiens, UniProt P42224); assay: inhibition of STAT1 reporter activity – cell-based, NIH 3T3, luciferase reporter, dose response (AID 1396); assay type: functional
Signal transducer and activator of transcription 1-alpha/beta, sequence (P42224 whole entry): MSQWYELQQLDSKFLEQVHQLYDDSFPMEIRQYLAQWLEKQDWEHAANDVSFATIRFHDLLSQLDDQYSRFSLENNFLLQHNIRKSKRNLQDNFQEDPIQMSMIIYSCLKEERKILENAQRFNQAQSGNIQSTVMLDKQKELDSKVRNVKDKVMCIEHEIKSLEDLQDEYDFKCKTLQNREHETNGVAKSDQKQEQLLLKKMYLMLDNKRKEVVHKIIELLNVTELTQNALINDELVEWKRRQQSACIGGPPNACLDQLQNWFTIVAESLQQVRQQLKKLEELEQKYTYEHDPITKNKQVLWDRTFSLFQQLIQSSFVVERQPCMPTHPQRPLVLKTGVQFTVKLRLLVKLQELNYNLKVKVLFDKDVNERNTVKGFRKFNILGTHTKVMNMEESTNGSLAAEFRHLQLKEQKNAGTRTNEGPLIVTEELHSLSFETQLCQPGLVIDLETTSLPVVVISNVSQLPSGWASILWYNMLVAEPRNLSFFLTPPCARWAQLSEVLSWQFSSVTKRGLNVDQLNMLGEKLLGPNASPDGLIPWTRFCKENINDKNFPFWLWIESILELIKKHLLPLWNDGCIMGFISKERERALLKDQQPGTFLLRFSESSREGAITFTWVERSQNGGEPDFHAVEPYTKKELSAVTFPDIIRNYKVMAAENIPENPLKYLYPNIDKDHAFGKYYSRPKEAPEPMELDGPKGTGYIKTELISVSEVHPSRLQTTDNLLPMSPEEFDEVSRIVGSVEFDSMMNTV

Transthyretin = Transthyretin (Homo sapiens, UniProt P02766); assay: Luminescence-based cell-based high throughput dose response assay to identify activators of Transthyretin (TTR) transcription.; assay type: functional
[12] = Luminescence Cell-Based Dose Confirmation HTS to Identify Activators of 5'UTR Stem-Loop Driven Alpha-Synuclein mRNA Translation in H4 Neuroglioblastoma Cells. [Related pubchem assays: 1829 (Project Summary), 1814 (Primary HTS)]; assay type: functional
[13] = Luminescence Cell-Based Dose Response HTS to Identify Activators of Luciferase Translation or Activity in H4 […] Cells. [Related pubchem assays: 1829 (Project Summary), 1814 (Primary HTS)]; assay type: functional
[14] = target: T2, RNA-binding protein pos-1 (Caenorhabditis elegans, UniProt G5EF15); assay: disruptors of C. elegans POS-1 RNA interaction – biochemical, fluorescence polarization, dose response (AID 1964);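 also: purified POS-1 fused to maltose binding protein made in E. coli; potency of compounds blocking POS-1 binding to fluorescent RNA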
T2 sequence (G5EF15 whole entry): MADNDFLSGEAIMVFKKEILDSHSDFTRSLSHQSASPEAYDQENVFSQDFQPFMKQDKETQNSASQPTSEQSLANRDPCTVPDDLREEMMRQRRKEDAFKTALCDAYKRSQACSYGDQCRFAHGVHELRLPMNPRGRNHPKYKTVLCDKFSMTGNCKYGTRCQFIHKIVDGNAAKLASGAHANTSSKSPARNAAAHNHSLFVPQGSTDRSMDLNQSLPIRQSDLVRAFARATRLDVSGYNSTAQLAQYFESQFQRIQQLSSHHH

H4 = assay: Luminescence Cell-Based Dose Response HTS to Identify Activators of 5'UTR Stem-Loop Driven Prion Protein mRNA Translation in H4 Neuroglioblastoma Cells. [Related pubchem assays: 1829 (Project Summary), 1814 (Primary HTS)]; assay type: functional; details: Homo sapiens
[15] = target: T3, Zinc finger protein mex-5 (Caenorhabditis elegans, UniProt Q9XUB2); assay: potency of MEX-5 RNA-binding blockers – biochemical, C. elegans, fluorescence polarization, dose response (AID 1960)
T3 sequence (Q9XUB2 whole entry): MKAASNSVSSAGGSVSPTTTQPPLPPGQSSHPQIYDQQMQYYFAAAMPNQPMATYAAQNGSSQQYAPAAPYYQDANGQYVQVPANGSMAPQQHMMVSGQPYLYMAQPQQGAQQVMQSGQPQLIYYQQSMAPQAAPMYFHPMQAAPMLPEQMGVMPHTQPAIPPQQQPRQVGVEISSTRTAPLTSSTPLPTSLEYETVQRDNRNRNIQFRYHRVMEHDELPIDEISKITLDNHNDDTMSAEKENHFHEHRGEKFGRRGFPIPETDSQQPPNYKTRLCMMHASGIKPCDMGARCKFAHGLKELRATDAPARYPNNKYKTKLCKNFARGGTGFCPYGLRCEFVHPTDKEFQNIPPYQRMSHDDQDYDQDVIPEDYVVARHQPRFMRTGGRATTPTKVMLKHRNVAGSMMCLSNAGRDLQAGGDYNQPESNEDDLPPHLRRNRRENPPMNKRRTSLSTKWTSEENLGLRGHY

[16] = target: RNA-editing ligase 1, mitochondrial (Trypanosoma brucei brucei, UniProt P86926); assay: inhibition of trypanosome RNA editing ligase – biochemical, fluorescence, Trypanosoma brucei, dose response (AID 1117295); assay type: functional
RNA-editing ligase 1, mitochondrial, sequence (P86926 whole entry): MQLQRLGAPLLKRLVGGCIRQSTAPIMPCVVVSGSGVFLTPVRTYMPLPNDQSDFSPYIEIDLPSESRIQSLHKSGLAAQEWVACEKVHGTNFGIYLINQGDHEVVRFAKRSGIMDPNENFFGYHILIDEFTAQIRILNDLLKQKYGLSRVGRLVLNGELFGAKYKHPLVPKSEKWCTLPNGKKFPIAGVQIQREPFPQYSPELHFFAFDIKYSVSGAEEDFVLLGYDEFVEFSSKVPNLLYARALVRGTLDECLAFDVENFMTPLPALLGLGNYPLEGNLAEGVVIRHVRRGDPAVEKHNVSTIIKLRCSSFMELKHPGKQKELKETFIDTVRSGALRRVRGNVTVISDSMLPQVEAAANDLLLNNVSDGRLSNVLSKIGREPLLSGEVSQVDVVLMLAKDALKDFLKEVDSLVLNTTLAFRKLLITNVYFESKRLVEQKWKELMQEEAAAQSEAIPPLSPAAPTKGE

Caspase-6 = target: T4, Caspase-6 (Homo sapiens, UniProt P55212); assay: inhibition of CASP6 peptide cleavage – biochemical, VEID-R110 fluorescence, cherry-pick, dose response (AID 720632)
T4 sequence (P55212 whole entry): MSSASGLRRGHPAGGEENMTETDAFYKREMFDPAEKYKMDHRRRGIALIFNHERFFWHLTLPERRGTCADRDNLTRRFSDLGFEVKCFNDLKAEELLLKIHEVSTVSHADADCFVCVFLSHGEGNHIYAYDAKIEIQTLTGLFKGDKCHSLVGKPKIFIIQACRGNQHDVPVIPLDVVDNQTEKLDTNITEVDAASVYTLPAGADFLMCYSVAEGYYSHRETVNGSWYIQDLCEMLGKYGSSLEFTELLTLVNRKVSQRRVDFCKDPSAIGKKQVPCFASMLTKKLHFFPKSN

[17] = target: T5, Carboxy-terminal domain RNA polymerase II polypeptide A small phosphatase 1 (Homo sapiens, UniProt Q9GZU7); assay: CTDSP1 inhibitors, concentration-response, biochemical, absorbance readout, ultra-high-throughput screen actives (AID 540297); assay type: functional
T5 sequence (Q9GZU7 whole entry): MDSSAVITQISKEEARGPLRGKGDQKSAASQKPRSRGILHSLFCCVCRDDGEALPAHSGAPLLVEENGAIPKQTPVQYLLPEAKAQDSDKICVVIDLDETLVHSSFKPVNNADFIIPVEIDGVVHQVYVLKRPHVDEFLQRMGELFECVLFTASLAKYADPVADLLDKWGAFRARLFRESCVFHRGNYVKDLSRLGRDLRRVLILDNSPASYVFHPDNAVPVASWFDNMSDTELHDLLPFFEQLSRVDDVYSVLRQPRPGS

For `Cc1onc(-c2ccccc2Cl)c1C(=O)N1CCN(c2cccc(Cl)c2)CC1`, the CC50 [1] was > 40 µM (active).
With `Cc1ccccc1-c1cc(-c2ccccc2O)on1` the EC50 [2] was > 67.6 µM (inactive), the AC50 (Cytochrome P450 2D6) was 22.4 µM (inconclusive) and the IC50 [3] was > 67.6 µM (inactive). For the same compound, the EC50 (cells [4]) was > 67.6 µM (inactive), the EC50 [5] was > 67.6 µM (inactive) and the AC50 (Cytochrome P450 3A4) was 31.6 µM (inconclusive).
In the case of `CCCCCCc1cc2cc(S(=O)(=O)c3ccc(Cl)cc3)c(=O)oc2cc1O`, the AC50 [6] was 41.4 µM (active), the AC50 (cells [7]) was > 52 µM (inactive) and the AC50 [8] was 0.476 µM (active). For the same compound, the AC50 [9] was 0.797 µM (active) and the AC50 (cells [10]) was 35.6 µM (active).
With `O=C(c1ccco1)N1CCN(c2[nH]cnc3c4ccccc4nc2-3)CC1` the IC50 [11] was 16.9 µM (not active).
With `O=C/C(=C\Nc1ccccn1)c1nc2ccccc2o1` the EC50 (Transthyretin) was > 167 µM (inactive), the EC50 [12] was > 120 µM (not active) and the EC50 [13] was 10.2 µM (active). For the same compound, the EC50 [14] was > 300 µM (not active), the EC50 (H4) was 32.7 µM (active) and the EC50 [15] was > 300 µM (not active).
With `O=C(N/N=C/c1ccc(OC(=O)c2ccccc2Cl)cc1)c1cc(O)cc(O)c1` the IC50 [16] was 41 µM (inactive), the AC50 (Caspase-6) was 1.11 µM (active) and the IC50 [17] was 1.4 µM (active).
